Reference: patent US9422240B2, “Partially saturated nitrogen-containing heterocyclic compound” (TAISHO PHARMACEUTICAL CO., LTD, priority 2012, dated 2016)
Where a name gives a salt, the structure may show the parent alone.

Legend:
human PHD2 [1] = biological target: T1, human PHD2 (Homo sapiens (Human), UniProt Q9GZT9); assay: Test 1: human PHD2 inhibitory activity, [14C]-2-oxoglutarate to [14C]-succinic acid radiometric assay with HIF-1α peptide; format: biochemical; conditions: read-out: Percent inhibition (% at 1 μM)
T1 sequence (Q9GZT9 whole entry): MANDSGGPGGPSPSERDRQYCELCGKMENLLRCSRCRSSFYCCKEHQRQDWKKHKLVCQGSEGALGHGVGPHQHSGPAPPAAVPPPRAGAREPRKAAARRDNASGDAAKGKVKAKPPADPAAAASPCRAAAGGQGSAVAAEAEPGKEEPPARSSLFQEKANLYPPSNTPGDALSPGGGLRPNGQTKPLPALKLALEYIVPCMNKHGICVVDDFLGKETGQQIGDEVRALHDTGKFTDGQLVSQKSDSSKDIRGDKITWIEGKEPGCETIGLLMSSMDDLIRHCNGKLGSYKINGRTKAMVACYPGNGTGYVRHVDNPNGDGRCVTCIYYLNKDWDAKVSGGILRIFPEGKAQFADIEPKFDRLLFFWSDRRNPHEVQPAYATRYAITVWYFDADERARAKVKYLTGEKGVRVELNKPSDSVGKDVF
Summary of the method: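 Activity was measured by radiometric counting of [14C]-succinic acid formed during prolyl hydroxylation of a 19-mer HIF-1α peptide, after DNPH removal of residual [14C]-2-oxoglutarate. Baculovirus-expressed human PHD2 lysate (4 μg/well) reacted for 15 min at 37° C. Substrate-free and compound-free wells served as reference points for inhibition.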

human PHD2 [2] = biological target: T1, human PHD2; assay: Test 2: human PHD2 inhibitory activity, fluorescence polarization assay of HIF-1α peptide proline hydroxylation; format: biochemical; conditions: read-out: Percent inhibition (% at 1 μM)
Summary of the method: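 A 19-mer HIF-1α peptide served as substrate, with the reaction started by 40 ng/well human PHD2 (cell lysate of NM_022051-transfected cells) and run 20 min at 30° C. before EDTA stop. Hydroxylated product bound anti-HIF-OH antibody, read by fluorescence polarization versus no-compound control.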

[3] = test compound's concentration 1 μM, Test 1, [14C]-2-oxoglutarate radiometric assay
[4] = test compound's concentration 1 μM, Test 2, fluorescence polarization assay

inhibition at 1 µM (human PHD2 [1]; [3])	inhibition at 1 µM (human PHD2 [2]; [4])	Compound	inhibition at 1 µM (human PHD2 [1])	inhibition at 1 µM (human PHD2 [2])
93%	91%	O=C(O)CNC(=O)C1=C(O)CCN(Cc2ccc(-c3ccc(Cl)cc3)cc2)C1=O [Ex. 2-11]	–	–
93%	91%	COc1ccc(-c2ccc(CN3CCC(O)=C(C(=O)NCC(=O)O)C3=O)cc2)cc1 [Ex. 2-12]	–	–
92%	87%	COc1ccc(-c2ccc(CN3CCC(O)=C(C(=O)NCC(=O)O)C3=O)cc2)cn1 [Ex. 2-13]	–	–
98%	93%	N#Cc1ccc(-c2ccc(CN3CCC(O)=C(C(=O)NCC(=O)O)C3=O)cc2)cc1 [Ex. 2-14]	–	–
97%	90%	CN(C)S(=O)(=O)c1ccc(-c2ccc(CN3CCC(O)=C(C(=O)NCC(=O)O)C3=O)cc2)cc1 [Ex. 2-15]	–	–
102%	93%	CC(=O)c1ccc(-c2ccc(CN3CCC(O)=C(C(=O)NCC(=O)O)C3=O)cc2)cc1 [Ex. 2-16]	–	–
94%	87%	Cn1nccc1-c1ccc(CN2CCC(O)=C(C(=O)NCC(=O)O)C2=O)cc1 [Ex. 2-17]	–	–
98%	91%	O=C(O)CNC(=O)C1=C(O)CCN(Cc2ccc(-c3ccsc3)cc2)C1=O [Ex. 2-18]	–	–
96%	93%	O=C(O)CNC(=O)C1=C(O)CCN(Cc2ccc(-c3ccncc3)cc2)C1=O [Ex. 2-19]	–	–
102%	93%	Cc1nc(C)c(-c2ccc(CN3CCC(O)=C(C(=O)NCC(=O)O)C3=O)cc2)s1 [Ex. 2-20]	–	–
88%	93%	O=C(O)CNC(=O)C1=C(O)CCN(Cc2ccc(-c3ccc(C(F)(F)F)nc3)cc2)C1=O [Ex. 2-21]	–	–
95%	94%	O=C(O)CNC(=O)C1=C(O)CCN(Cc2ccc(-c3cccc(Cl)c3)cc2)C1=O [Ex. 2-22]	–	–
88%	96%	O=C(O)CNC(=O)C1=C(O)CCN(Cc2ccc(-c3ccc(Cl)c(Cl)c3)cc2)C1=O [Ex. 2-23]	–	–
91%	93%	O=C(O)CNC(=O)C1=C(O)CCN(Cc2ccc(-c3ccc(C(F)(F)F)cc3)cc2)C1=O [Ex. 2-24]	–	–
92%	96%	Cc1cccc(-c2ccc(CN3CCC(O)=C(C(=O)NCC(=O)O)C3=O)cc2)c1 [Ex. 2-25]	–	–
90%	95%	COc1cccc(-c2ccc(CN3CCC(O)=C(C(=O)NCC(=O)O)C3=O)cc2)c1 [Ex. 2-26]	–	–
100%	96%	O=C(O)CNC(=O)C1=C(O)CCN(Cc2ccc(-c3ccc4ncccc4c3)cc2)C1=O [Ex. 2-27]	–	–
90%	97%	O=C(O)CNC(=O)C1=C(O)CCN(Cc2ccc(-c3ccc(F)cc3)cc2)C1=O [Ex. 2-28]	–	–
101%	95%	O=C(O)CNC(=O)C1=C(O)CCN(Cc2ccc(-c3ccc(F)cc3)c(F)c2)C1=O [Ex. 2-29]	–	–
103%	99%	O=C(O)CNC(=O)C1=C(O)CCN(Cc2ccc(-c3ccc(O)cc3)cc2)C1=O [Ex. 2-30]	–	–
–	–	O=C(O)CNC(=O)C1=C(O)CCN(Cc2ccc(C3CCCC3)cc2)C1=O [Ex. 3-1, N-{[1-(4-Cyclopentylbenzyl)-4-hydroxy-2-oxo-1,2,5,6-tetrahydropyridin-3-yl]carbonyl}glycine sodium salt]	102%	95%
–	–	O=C(O)CNC(=O)C1=C(O)CCN(Cc2ccc(C3CC3)cc2)C1=O [Ex. 3-2, N-{[1-(4-Cyclopropylbenzyl)-4-hydroxy-2-oxo-1,2,5,6-tetrahydropyridin-3-yl]carbonyl}glycine sodium salt]	87%	90%
58%	67%	COc1ccc(CN2CCC(O)=C(C(=O)NCC(=O)O)C2=O)c(OC)c1 [Ex. 4-1, N-{[1-(2,4-Dimethoxybenzyl)-4-hydroxy-2-oxo-1,2,5,6-tetrahydropyridin-3-yl]carbonyl}glycine]	–	–
77%	81%	C=CCOc1ccc(CN2CCC(O)=C(C(=O)NCC(=O)O)C2=O)cc1 [Ex. 4-2, N-({4-Hydroxy-2-oxo-1-[4-(prop-2-en-1-yloxy)benzyl]-1,2,5,6-tetrahydropyridin-3-yl}carbonyl)glycine]	–	–
